In US20240399001A1, “RA[…] TH[…] TO FIBROBLAST ACTIVATION PROTEIN (FAP)” (BLUE EARTH D[…], priority 2021, published 2024):

Tests used:
FAP = biological target: T1, FAP (Homo sapiens, UniProt Q12884); assay: In vitro FAP binding affinity, Grating-Coupled Interferometry (GCI), waveRAPID kinetics assay; details: immobilized biotinylated FAP; 1×PBS pH 7.4, 1 mM DTT, 0.005% Tween, 2% DMSO; non-radiolabelled compounds
T1 construct: biotin (biotinylated)
T1 sequence (Q12884 1-760): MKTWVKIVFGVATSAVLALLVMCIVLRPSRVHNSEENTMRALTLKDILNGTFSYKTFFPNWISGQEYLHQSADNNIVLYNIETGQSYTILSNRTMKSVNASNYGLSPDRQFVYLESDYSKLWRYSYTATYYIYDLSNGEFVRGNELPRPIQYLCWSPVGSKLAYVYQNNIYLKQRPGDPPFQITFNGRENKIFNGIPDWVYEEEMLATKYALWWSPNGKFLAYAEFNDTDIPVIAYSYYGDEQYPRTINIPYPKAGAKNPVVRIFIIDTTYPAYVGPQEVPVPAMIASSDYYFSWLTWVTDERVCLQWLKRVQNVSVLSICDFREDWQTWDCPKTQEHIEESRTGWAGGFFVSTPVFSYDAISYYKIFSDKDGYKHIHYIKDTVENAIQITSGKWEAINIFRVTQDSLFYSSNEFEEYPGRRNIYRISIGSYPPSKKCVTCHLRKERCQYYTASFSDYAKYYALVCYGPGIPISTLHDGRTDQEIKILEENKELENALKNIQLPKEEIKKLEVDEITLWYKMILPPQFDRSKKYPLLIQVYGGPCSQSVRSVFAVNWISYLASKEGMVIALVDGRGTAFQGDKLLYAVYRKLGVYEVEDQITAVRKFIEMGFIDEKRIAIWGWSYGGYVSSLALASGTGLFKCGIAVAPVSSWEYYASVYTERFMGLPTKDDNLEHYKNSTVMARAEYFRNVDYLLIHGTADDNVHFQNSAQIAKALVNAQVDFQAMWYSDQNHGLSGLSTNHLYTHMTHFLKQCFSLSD
Experimental: The binding affinity of non-radiolabelled compounds Example 2 (Ga—(S,R,R)—SiFA-FAP-1) and Example 1 ((S,R,R)—SiFA-FAP-1) was assessed in vitro using Grating-Coupled Interferometry (GCI) and waveRAPID kinetics assay (Kartal Ö et al. SLAS Discov. 2021 September; 26(8)-995-1003).
FAP was immobilized on a streptavidin sensor chap in order to assess target binding of compounds. Briefly, the streptavidin chip was conditioned with borate buffer and activated with EDC-NHS solution. Immobilization was achieved via amine coupling to the surface on an amine reactive sensor chip (NeutrAvidin sensor chip) and unused amine reactive groups were deactivated with ethanolamine. FAP was immobilized via via NeutrAvidin capturing of the biotinylated FAP and remaining NeutrAvidin quenched with biocytin. Binding of the compounds to immobilized FAP was assessed using the waveRAPID kinetics assay, using different concentrations of each compound in 1×PBS pH 7.4, 1 mM DTT, 0.005% Tween, 2% DMSO. Binding affinity to FAP was reported as KD.

[1] = tested on: subcutaneous U87-MG tumour; assay: Biodistribution by γ-counting of excised tissues of U87-MG tumour-bearing mice; assay type: in vivo; details: γ-counting 80 minutes post-radiotracer injection; for Biodistribution, Blood / Biodistribution, Bone / Biodistribution, Heart / Biodistribution, Intestine / Biodistribution, Kidneys / Biodistribution, Liver / Biodistribution, Lung / Biodistribution, Muscle / Biodistribution, Pancreas / Biodistribution, Spleen: U87-MG tumor-bearing mice
Experimental: (§1) The human glioblastoma U87-MG cell line was purchased from ATCC. Cells were cultured in EMEM (supplemented with 2 mM L-glutamine, with 10% fetal bovine serum and 0.1 mM NEAA) at 37° C. in a humidified atmosphere (5% CO2, 95% air).
(§2) All animal experiments were conducted in accordance with the Federation for Laboratory Animal Science Associations guidelines. Healthy female Swiss nude (CrI:NU(Ico)-Foxn1nu) mice (5-6 weeks old) were purchased from Charles River. Mice were irradiated 24-72 hours prior to tumour cell inoculation (whole-body irradiation, 2 Gy/mouse), and U87-MG cells (1×10^7 in 200 μL of RPMI 1640) were then injected subcutaneously into the right shoulder flank.
(§3) Female Swiss nude (CrI:NU(Ico)-Foxn1nu) mice each bearing a subcutaneous U87-MG tumour in the right flank (n=4) were administered with radiolabelled compound of Example 11 ([^18F]—Ga—(S,R,R)—SiFA-FAP-1) (8±1.5 MBq, 100 μL per mouse) intravenously into the tail vein (approximately 3 weeks post inoculation of U87-MG cells). Static PET imaging was performed 60 minutes post-radiotracer administration under anaesthesia (2% isoflurane) using a small animal PET scanner (eXploreVISTA, GE) (n=3). Whole-body PET acquisitions were performed over two bed positions for 20 minutes. Regions of interest were generated, and radiotracer uptake in tissues was calculated as % injected dose per region of interest volume (% ID/cm^3). Immediately post-PET imaging, mice (n=4) were sacrificed and select tissues (blood, tumor, heart, lung, liver, kidneys, spleen, pancreas, intestine, bone, muscle, tail) were harvested and weighed. Radioactivity in the collected samples was determined using γ-counting (Packard). Radiotracer uptake was calculated as % injected dose per gram of tissue (% ID/g).

[2] = tested on: subcutaneous U87-MG tumour; assay: In vivo PET imaging uptake in U87-MG tumour-bearing mice; details: 60 minutes post-radiotracer administration; for PET imaging uptake, Muscle: U87-MG tumor-bearing mice; for PET imaging uptake, Muscle / PET imaging uptake, Tumor: i.v.
Experimental: as §1, §2, §3

SMILES: CC(C)(C)[Si](F)(c1ccc(C(=O)NC[C@@H](NC(=O)CC[C@H](C(=O)O)N2CCN(CC(=O)O)CCN(CC(=O)O)CCN(CC(=O)O)CC2)C(=O)NCCCOc2ccc3nccc(C(=O)NCC(=O)N4CCC[C@H]4C#N)c3c2)cc1)C(C)(C)C [Example 1, 2,2′,2″-(10-((R)-1-Carboxy-4-(((R)-1-((3-((4-((2-((S)-2-cyanopyrrolidin-1-yl)-2-oxoethyl)carbamoyl)quinolin-6-yl)oxy)propyl)amino)-3-(4-(di-tert-butylfluorosilyl)benzamido)-1-oxopropan-2-yl)amino)-4-oxobutyl)-1,4,7,10-tetraazacyclododecane-1,4,7-triyl) triacetic acid]
- Kd (FAP): 0.031 nM

SMILES: CC(C)(C)[Si]([18F])(c1ccc(C(=O)NC[C@@H](NC(=O)CC[C@H](C(=O)O)N2CCN(CC(=O)O)CCN(CC(=O)O)CCN(CC(=O)O)CC2)C(=O)NCCCOc2ccc3nccc(C(=O)NCC(=O)N4CCC[C@H]4C#N)c3c2)cc1)C(C)(C)C [Example 11]
- Biodistribution, Blood ([1]; Mean ± SD (n=4)): 2.6 ± 1.1 % ID/g
- Biodistribution, Bone ([1]; Mean ± SD (n=4)): 5.1 ± 1.3 % ID/g
- Biodistribution, Heart ([1]; Mean ± SD (n=4)): 1.1 ± 0.2 % ID/g
- Biodistribution, Intestine ([1]; Mean ± SD (n=4)): 7.3 ± 2.4 % ID/g
- Biodistribution, Kidneys ([1]; Mean ± SD (n=4)): 3.0 ± 1.2 % ID/g
- Biodistribution, Liver ([1]; Mean ± SD (n=4)): 3.3 ± 0.8 % ID/g
- Biodistribution, Lung ([1]; Mean ± SD (n=4)): 1.7 ± 0.1 % ID/g
- Biodistribution, Muscle ([1]; Mean ± SD (n=4)): 0.6 ± 0.1 % ID/g
- Biodistribution, Pancreas ([1]; Mean ± SD (n=4)): 0.6 ± 0.1 % ID/g
- Biodistribution, Spleen ([1]; Mean ± SD (n=4)): 0.7 ± 0.1 % ID/g
- Biodistribution, Blood ([1]; Mouse 1): 2.0 % ID/g
- Biodistribution, Bone ([1]; Mouse 1): 5.7 % ID/g
- Biodistribution, Heart ([1]; Mouse 1): 1.1 % ID/g
- Biodistribution, Intestine ([1]; Mouse 1): 5.4 % ID/g
- Biodistribution, Kidneys ([1]; Mouse 1): 3.8 % ID/g
- Biodistribution, Liver ([1]; Mouse 1): 3.8 % ID/g
- Biodistribution, Lung ([1]; Mouse 1): 1.6 % ID/g
- Biodistribution, Muscle ([1]; Mouse 1): 0.5 % ID/g
- Biodistribution, Pancreas ([1]; Mouse 1): 0.7 % ID/g
- Biodistribution, Spleen ([1]; Mouse 1): 0.7 % ID/g
- Biodistribution, Blood ([1]; Mouse 2): 1.3 % ID/g
- Biodistribution, Bone ([1]; Mouse 2): 6.6 % ID/g
- Biodistribution, Heart ([1]; Mouse 2): 0.9 % ID/g
- Biodistribution, Intestine ([1]; Mouse 2): 5.3 % ID/g
- Biodistribution, Kidneys ([1]; Mouse 2): 1.6 % ID/g
- Biodistribution, Liver ([1]; Mouse 2): 2.5 % ID/g
- Biodistribution, Lung ([1]; Mouse 2): 1.8 % ID/g
- Biodistribution, Muscle ([1]; Mouse 2): 0.8 % ID/g
- Biodistribution, Pancreas ([1]; Mouse 2): 0.6 % ID/g
- Biodistribution, Spleen ([1]; Mouse 2): 0.6 % ID/g
- Biodistribution, Blood ([1]; Mouse 3): 3.5 % ID/g
- Biodistribution, Bone ([1]; Mouse 3): 4.0 % ID/g
- Biodistribution, Heart ([1]; Mouse 3): 1.3 % ID/g
- Biodistribution, Intestine ([1]; Mouse 3): 8.6 % ID/g
- Biodistribution, Kidneys ([1]; Mouse 3): 4.2 % ID/g
- Biodistribution, Liver ([1]; Mouse 3): 2.7 % ID/g
- Biodistribution, Lung ([1]; Mouse 3): 1.7 % ID/g
- Biodistribution, Muscle ([1]; Mouse 3): 0.5 % ID/g
- Biodistribution, Pancreas ([1]; Mouse 3): 0.6 % ID/g
- Biodistribution, Spleen ([1]; Mouse 3): 0.7 % ID/g
- Biodistribution, Blood ([1]; Mouse 4): 3.5 % ID/g
- Biodistribution, Bone ([1]; Mouse 4): 4.2 % ID/g
- Biodistribution, Heart ([1]; Mouse 4): 1.2 % ID/g
- Biodistribution, Intestine ([1]; Mouse 4): 10.1 % ID/g
- Biodistribution, Kidneys ([1]; Mouse 4): 2.4 % ID/g
- Biodistribution, Liver ([1]; Mouse 4): 4.2 % ID/g
- Biodistribution, Lung ([1]; Mouse 4): 1.8 % ID/g
- Biodistribution, Muscle ([1]; Mouse 4): 0.6 % ID/g
- Biodistribution, Pancreas ([1]; Mouse 4): 0.5 % ID/g
- Biodistribution, Spleen ([1]; Mouse 4): 0.7 % ID/g
- radiotracer uptake higher in tumor compared to muscle (biodistribution analyses) [1]: 8 fold
- Biodistribution - Tumor to muscle ratio (T:M) ([1]; Mean ± SD (n=4)): 8.3 ± 2.9
- Biodistribution, Tumor ([1]; Mean ± SD (n=4)): 4.8 ± 1.1 % ID/g
- Biodistribution - Tumor to muscle ratio (T:M) ([1]; Mouse 1): 11.0
- Biodistribution, Tumor ([1]; Mouse 1): 5.8 % ID/g
- Biodistribution - Tumor to muscle ratio (T:M) ([1]; Mouse 2): 5.9
- Biodistribution, Tumor ([1]; Mouse 2): 4.8 % ID/g
- Biodistribution - Tumor to muscle ratio (T:M) ([1]; Mouse 3): 10.6
- Biodistribution, Tumor ([1]; Mouse 3): 5.2 % ID/g
- Biodistribution - Tumor to muscle ratio (T:M) ([1]; Mouse 4): 5.7
- Biodistribution, Tumor ([1]; Mouse 4): 3.2 % ID/g
- PET imaging Tumor:Muscle ratio ([2]; Mean ± SD (n=3)): 4.4 ± 0.8
- PET imaging Tumor:Muscle ratio ([2]; Mouse 1): 4.6
- PET imaging Tumor:Muscle ratio ([2]; Mouse 2): 5
- PET imaging Tumor:Muscle ratio ([2]; Mouse 3): 3.5
- PET imaging uptake, Muscle ([2]; Mean ± SD (n=3)): 1.0 ± 0.1 % ID/cm^3
- PET imaging uptake, Muscle ([2]; Mouse 1): 1 % ID/cm^3
- PET imaging uptake, Muscle ([2]; Mouse 2): 0.8 % ID/cm^3
- PET imaging uptake, Muscle ([2]; Mouse 3): 1.1 % ID/cm^3
- PET imaging uptake, Tumor ([2]; Mean ± SD (n=3)): 4.1 ± 0.3 % ID/cm^3
- PET imaging uptake, Tumor ([2]; Mouse 1): 4.4 % ID/cm^3
- PET imaging uptake, Tumor ([2]; Mouse 2): 4.2 % ID/cm^3
- PET imaging uptake, Tumor ([2]; Mouse 3): 3.8 % ID/cm^3
